Patent US11590155B2, “Substituted nucleosides, nucleotides and analogs thereof” (priority 2014, dated 2023)

Each compound was assayed on Ebola (assay: microbe, parasite or virus in culture). Settings: Zaire ebolavirus, HeLa, read-out: EC50 against Ebola.
Assay type: cell-based
For `Nc1ccn([C@@H]2O[C@@](CO)(CCl)[C@@H](O)[C@H]2F)c(=O)n1` [compound 315], the EC50 was less than 25000 nM. Compound `[N-]=[N+]=NC[C@]1(CO)O[C@@H](n2ccc(N)nc2=O)[C@H](F)[C@@H]1O` [Compound 106] has an EC50 of less than 2000 nM. In the case of `[N-]=[N+]=N[C@]1(CO)O[C@@H](n2ccc(N)nc2=O)[C@H](F)[C@@H]1O` [compound 332], the EC50 is reported as less than 2000 nM.
